In patent US20040171688A1, “Carboxylic acids and derivatives thereof and pharmaceutical compositions containing them” (priority 1997, published 2004):

Target: T1, HNF-4α (Rattus norvegicus, UniProt P22449)
T1 sequence (P22449 1-464 isoform P22449-2): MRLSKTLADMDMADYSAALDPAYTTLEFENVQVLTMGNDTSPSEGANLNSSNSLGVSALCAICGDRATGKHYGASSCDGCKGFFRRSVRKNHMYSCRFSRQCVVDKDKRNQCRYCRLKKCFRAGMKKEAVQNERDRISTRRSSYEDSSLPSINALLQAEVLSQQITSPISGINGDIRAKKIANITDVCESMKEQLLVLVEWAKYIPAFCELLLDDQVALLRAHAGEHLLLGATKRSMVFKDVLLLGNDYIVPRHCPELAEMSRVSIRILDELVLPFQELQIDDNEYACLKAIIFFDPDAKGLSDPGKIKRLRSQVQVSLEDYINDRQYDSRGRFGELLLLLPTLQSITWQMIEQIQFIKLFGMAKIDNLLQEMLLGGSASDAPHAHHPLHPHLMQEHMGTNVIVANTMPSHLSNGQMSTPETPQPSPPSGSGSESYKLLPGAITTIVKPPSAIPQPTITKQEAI
Experiment: In vitro transcription assay induced by His-HNF-4α with HeLa nuclear extract
Format: biochemical
Set-up: The full length HNF-4α1 cDNA cloned into 6His-pET11d vector was expressed in E.coli BL21 (DE3)plysS; 6His; made in house; host or cells: E. coli BL21 (DE3)plysS
Conditions: for HNF-4α transcriptional activity, agonist/antagonist character (summary): summary statement of Example 4
Experimental: a. Representative experiments showing in vitro transcription of the test template in the presence of increasing concentrations of His-HNF-4I and in the absence (lanes 1-3, 7-9) or presence of 10 μM of added palmitoyl(16:0)-CoA (lanes 4-6) or stearoyl(18:0)-CoA (lanes 10,11) as indicated. Correctly initiated transcripts of the test and control templates are denoted by (→) and ? , respectively.
b. HNF-4I-induced in vitro transcription in the absence (empty bars) or presence of 10 μM each of added palmitoyl(16:0)-CoA (filled bars) or stearoyl(18:0)-CoA (hatched bars). Fold transcription indicates the ratio of specific transcript produced by the test template over transcript from the control template normalized to the ratio observed without HNF-4a. The figure summarizes 5 independent experiments for each acyl-CoA. *-Significant as compared with the respective value in the absence of added ligand.
Reaction mixture contained 20 mM Hepes-KOH (pH 7.9), 5 mM MgCl2, 60 mM KCl, 8% glycerol, 2 mM DTT, 1 mM 3′-O-methyl-GTP, 10 units of T1RNase, 20 units of RNasin, 0.5 μg sonicated salmon sperm DNA and His-HNF-4α and test ligand as indicated. The mixture was preincubated for 30 min at 22° C. followed by adding 10 ng of pAdML200 control template consisting of the adenovirus major-late promoter (−400/+10) linked to a 200 bp G-less cassette and 200 ng of the test template consisting of three C3P copies of the apo CIII promoter sequence (−87/−66) upstream to a synthetic ovalbumin TATA box promoter in front of a 377 bp-G-less cassette. The mixture was further preincubated for 10 min at 22° C. followed by adding 40 μg of HeLa nuclear extract with additional preincubation for 30 min at 30° C. 0.5-mM ATP, 0.5 mM CTP, 25 μM UTP, and 10 μCi of [α-^32P]UTP (s.a. […], Amersham) were then added and the complete reaction mixture was incubated for 45 min at 30° C. in a final volume of 25 μl. The reaction was terminated by adding 175 μl of stop mix (0.1 M sodium acetate (pH 5.2), 10 mM EDTA, 0.1% SDS, 200 μg/ml tRNA) followed by phenol extraction and ethanol precipitation. RNA was resuspended in sample buffer containing 80% formamide and 10 mM Tris-HCl (pH 7.4) and separated on 5% polyacrylamide gel containing 7 M urea in TBE. Correctly initiated transcripts were quantitated by PhosphorImager analysis. The test DNA template was constructed by inserting into pC2AT19 plasmid a PCR-amplified oligonucleotide prepared by using the (C3P)3-TK-CAT plasmid as template and consisting of three copies of the C3P element of the Apo CIII promoter sequence (−87/−66) having an ECoRI and SSTI sites at the 5′ and 3′ ends, respectively. The resultant plasmid was cleaved with sphI and sacI and ligated to a synthetic oligonucleotide (5′-CGAGGTCCAC-[…]-3′) containing sequences of the HSV thymidine kinase promoter (−41/−29) and of the chicken ovalbumin promoter (−33/−21).
The effect of agonistic and antagonistic HNF-4α-ligands was further evaluated by analyzing the in vitro transcription rate, catalyzed by added HeLa nuclear extract and induced by recombinant HNF-4α, of a test template consisting of a 377 bp G-less cassette promoted by sequences of the HSV thymidine kinase and chicken ovalbumin promoters and enhanced by three C3P copies of the apo Clil gene promoter. Transcriptional activation by HNF-4α was evaluated in the presence and in the absence of added representative long chain fatty acyl-CoAs. […]

| Compound | HNF-4α transcriptional activity, agonist/antagonist character (summary) | effect on HNF-4α induced in vitro transcription (10 μM added acyl-CoA (FIG. 3)) |
| --- | --- | --- |
| CCCCCCCCCCCCCC(=O)SCCNC(=O)CCNC(=O)[C@H](O)C(C)(C)COP(=O)(O)OP(=O)(O)OC[C@H]1O[C@@H](n2cnc3c(N)ncnc32)[C@H](O)[C@@H]1OP(=O)(O)O [myristoyl(14:0)-CoA, reference compound] | activators | – |
| CCCCCCCCCCCCCCCCCC(=O)SCCNC(=O)CCNC(=O)[C@H](O)C(C)(C)COP(=O)(O)OP(=O)(O)OC[C@H]1O[C@@H](n2cnc3c(N)ncnc32)[C@H](O)[C@@H]1OP(=O)(O)O [Stearoyl(18:0)-CoA] | true antagonist | inhibited |
